# ChEMBL document CHEMBL5137091, “Investigating the Structure-Activity Relationship of 1,2,4-Triazine G-Protein-Coupled Receptor 84 (GPR84) Antagonists” (J Med Chem, 2022)
# Test system: not listed separately
# Assay: Protein binding in mouse plasma assessed as unbound fraction
# Assay type: ADME, cell-free
row,SMILES,fraction unbound
1,c1ccc(-c2nnc(Cc3c[nH]c4ccccc34)nc2-c2ccccc2)cc1,< 0.01
2,c1ccc(-c2nc(Cc3c[nH]c4ccccc34)nnc2-c2ccc(CN3CCOCC3)cc2)cc1,< 0.01

# Target: G-protein coupled receptor 84 (Homo sapiens, UniProt Q9NQS5)
# Sequence (Q9NQS5 whole entry): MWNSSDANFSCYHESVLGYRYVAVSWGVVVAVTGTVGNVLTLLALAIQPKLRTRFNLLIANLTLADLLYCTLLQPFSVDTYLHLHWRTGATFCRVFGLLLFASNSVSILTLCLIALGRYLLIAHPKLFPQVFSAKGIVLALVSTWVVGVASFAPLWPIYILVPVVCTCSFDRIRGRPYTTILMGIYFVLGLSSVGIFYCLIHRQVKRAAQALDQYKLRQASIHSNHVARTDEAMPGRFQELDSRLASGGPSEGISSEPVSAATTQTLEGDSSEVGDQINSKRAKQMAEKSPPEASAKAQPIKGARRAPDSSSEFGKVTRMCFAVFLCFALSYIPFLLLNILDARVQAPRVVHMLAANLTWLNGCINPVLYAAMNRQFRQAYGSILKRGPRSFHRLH
# Assay: biochemical
row,SMILES,IC50 [nM]
1,c1ccc(-c2cnc(Cc3c[nH]c4ccccc34)nn2)cc1,5620
2,c1ccc(-c2cnnc(Cc3c[nH]c4ccccc34)n2)cc1,10200
3,c1ccc(-c2nnc(Cc3c[nH]c4ccccc34)nc2-c2ncccn2)cc1,263
4,COC(=O)c1cccc(-c2nc(Cc3c[nH]c4ccccc34)nnc2-c2ccccc2)c1,398
5,COC(=O)c1cccc(-c2nnc(Cc3c[nH]c4ccccc34)nc2-c2ccccc2)c1,115
